Assays:
[1] = system: lettuce seeds [生菜(Lettuce)种子]; assay: Herbicidal activity test, seed germination inhibition in 24-well plate, lettuce; type: in vivo; settings: 1 mM
[2] = system: bentgrass (Agrostis) seeds [剪股颖(Agrostis)的种子]; assay: Herbicidal activity test, seed germination inhibition in 24-well plate, bentgrass; type: in vivo

Row | Structure (SMILES) | inhibition of lettuce seeds [1] | inhibition of germination of Agrostis seeds ([2]; 33 μM) | also measured
1 | O=C(NOCc1cnc(Cl)s1)c1cccnc1Cl [I-1] | 一定抑制作用 | 较好的抑制 | –
2 | O=C(NOCc1ccc(Cl)cc1Cl)c1cccnc1Cl [I-2] | 一定抑制作用 | – | –
3 | O=C(NOCc1ccc(Br)cc1)c1cccnc1Cl [I-5] | 一定抑制作用 | – | –
4 | CC(C)(C)c1ccc(CONC(=O)c2cccnc2Cl)cc1 [I-8] | – | 较好的抑制 | inhibition of germination of Agrostis seeds ([2]; 10 μM): 较好的抑制
5 | O=C(NOCc1ccccc1Br)c1cccnc1Cl [I-10] | – | 较好的抑制 | –
6 | O=C(NOCc1ccccc1Cl)c1cccnc1Cl [I-14] | – | – | inhibition of germination of Agrostis seeds ([2]; 333 μM): 完全抑制

Source: patent CN113004196A, “N-(苯甲氧基)-2-氯烟酰胺类化合物及其制备方法和应用” (Zhejiang University of Technology ZJUT, priority 2021, dated 2021)
